Like-named read-outs stand apart in the source and are kept apart here.
Assays:
[1] = test system: A549 cells; assay: In vitro cytotoxicity, crystal violet staining; assay type: cell-based; details: Homo sapiens, BBR, 72 h exposure
Experimental: (§1) NSCLC cells A549 and H1650 were plated in 96 well plates at 10,000 cells/well density. After 24 h, cells were treated with various concentrations of BBR and BA. DMSO (0.1%) treated cells were considered as control cells. After 72 h treatment, cells were fixed in 0.25% gultaraldehyde and stained with 0.05% crystal violet staining. Percent of cell viability or cell kill was calculated by considering DMSO treated control cells as 100% viable (zero % cell kill).

[2] = test system: H1650 cells; assay: In vitro cytotoxicity, crystal violet staining; assay type: cell-based; details: Homo sapiens, NCI-H1650; BBR, 72 h exposure
Experimental: as §1

[3] = In vitro drug release of BBR (USP type II paddle); assay type: physicochemical; details: after 5 h; PBS pH 5.8 with 1% volpo, 37°C
Experimental: In vitro drug release study was conducted in PBS (pH 5.8) containing 1% volpo. Briefly, 50 mg of free drug or equivalent amount of SD form of BBR and BA were dispersed in 500 ml of release medium and the drug release profile was studied at pH 5.8. Release studies were performed according to the USP type II paddle method, at 37±0.5°C while stirring constantly at 50 rpm. Samples were withdrawn at different time points, centrifuged and drug content in the samples was analyzed by spectrometric method of analysis. The withdrawn samples were replaced by equal volumes of fresh medium maintained at the same temperature. Except replacing the 1% Volpo with 2.5% SLS, similar conditions were maintained for the in vitro drug release studies of BA in free drug and SD forms. The released BA concentrations were measured by established HPLC method.

[4] = Oral pharmacokinetic study; assay type: in vivo, Sprague Dawley rats
Experimental: Rats were fasted overnight before the start of the experiments and randomly divided into two experimental groups. […] Pharmacokinetic parameters were analyzed using non-compartmental techniques with WinNonlin® 5.0 software (Pharsight Corporation, Mountain View, CA, USA). SHAM analysis (i.e., Slope, Height, Area, and Moment) utilized plasma concentration-time data to estimate the area under the curve (AUC), apparent terminal elimination rate constant (λz), terminal elimination half-life (t1/2) and the area under the first moment of the plasma concentration–time curve (AUMC). The AUC was calculated for each rat using the piecewise log trapezoidal areas and extrapolated to infinity by dividing λz into the last measured plasma concentration (i.e. Clast/λz). From the values of AUC0_0-∞ and AUMC0-∞, the clearance (CL), mean residence time (MRT) and volume of distribution at tissue equilibrium (Vss) were calculated based on noncompartmental monoexponential assumptions as: CL = Dose/AUC, MRT≅AUMC/AUC and Vss = CL×MRT. The noncompartmental parameters were calculated for each rat before averaging dose groups. The pharmacokinetic parameters such as AUC, Cmax, t1/2, tmax, MRT, etc were compared between the free drug and SD formulations.

[5] = test system: Bcl-2; assay: Western blot of orthotopic lung tumor lysates; assay type: in vivo, athymic Nu/nu mice; details: A549 tumors; densitometry
Experimental: (§2) Western blot analysis was performed to study the expression of Bcl-2, cleaved caspase 3, survivin, cyclin D1, p53, MMP-9, HIF-1α. The detailed procedure was given as Data S1.
(§3) B) Western blot analysis: western blot analysis was performed to study the expression of Bcl-2, cleaved caspase 3, survivin, cyclin D1, p53, MMP-9, HIF-1α. The detailed procedure was given in supplementary data. Protein was extracted from tumor tissues collected from untreated control and drug treated animals using RIPA lysis buffer (50mM Tris-HCL, pH 8.0, with 150 mM sodium chloride, 1.0% Igepal CA-630 (NP-40), 0.5% sodium deoxychlorate, and 0.1% sodium dodecyl sulfate) with protease inhibitor and 500 mM phenylmethylsulfonyl fluoride. Protein concentration was measured using BCA Protein Assay Reagent Kit (PIERCE, Rockford, IL). Equal amounts of supernatant protein (50 μg) was denatured by boiling for 5 min in SDS sample buffer, separated by 10% SDS-PAGE, transferred to nitrocellulose membranes for immunoblotting. Membranes were blocked with 5% skim milk in Tris-buffered saline with Tween 20 [10mM Tris-HCL (pH 7.6), 150 mM Nacl, and 0.5% Tween 20] and probed with antibodies against Bcl-2 (1:1000), cleaved caspase 3 (1:500), survivin (1:1000), cyclin D1(1:1000), p53 (1:1000), MMP-9 (1:1000), HIF-1α (1:1000) and β-actin (1:1000). Horseradish peroxidase-conjugated secondary antibodies (Santa Cruz Biotechnology, Santa Cruz, CA) were used. Proteins were visualized using enhanced chemiluminescent solution (Pierce, Rockford, IL) and exposed to Kodak X-OMAT AR autoradiography film (Eastman Kodak, Rochester, NY).

[6] = test system: HIF-1α; assay: Western blot of orthotopic lung tumor lysates; assay type: in vivo, athymic Nu/nu mice; details: A549 tumors
Experimental: as §2, §3

[7] = test system: cyclin D1; assay: Western blot of orthotopic lung tumor lysates; assay type: in vivo, athymic Nu/nu mice; details: A549 tumors; densitometry
Experimental: as §2, §3

[8] = test system: p53; assay: Western blot of orthotopic lung tumor lysates; assay type: in vivo, athymic Nu/nu mice; details: A549 tumors; densitometry
Experimental: as §2, §3

[9] = test system: survivin; assay: Western blot of orthotopic lung tumor lysates; assay type: in vivo, athymic Nu/nu mice; details: A549 tumors; densitometry
Experimental: as §2, §3

[10] = design: method as in PMID 19283771; details: oral administration of 100 mg/kg in rats ref 24; cited from earlier work
[11] = design: method as in PMID 16956957, PMID 20634337; details: oral ref 21, 22; cited from earlier work
[12] = Sprague Dawley, rat, plasma, po, 100 mg/kg orally

Question: Which results are given for `COc1ccc2cc3[n+](cc2c1OC)CCc1cc2c(cc1-3)OCO2.[Cl-]` [BBR free drug, 5,6-dihydro-9,10-dimethoxy-benzo[g]-1,3-benzodioxolo[5,6-a]quinolizinium, chloride]?
Answer: IC50 [1]: 6.45 ± 0.46 µM; IC50 [2]: 8.39 ± 1.03 µM; percent of BBR released [3]: Approximately 100%; CL ([4]; 100 mg/kg orally): 2.034 ± 0.2813 mL/min/kg; AUMC (0-∞) ([4]; BBR, 100 mg/kg orally): 5619.03±651.24 ng.h^2/ml; Vss ([4]; BBR, 100 mg/kg orally): 1.04839 ± 0.10635 L/kg; half-life ([4]; Sprague Dawley, rat, plasma, po, 100 mg/kg, read-out: t½ (converted)): 5.95 ± 0.47 h; MRT [4, 12]: 6.85 ± 1.68 h; Tmax [4, 12]: 1.41 ± 0.67 h; AUC(0-inf) ([4]; Sprague Dawley, rat, plasma, po, BBR, 100 mg/kg orally): 819 ± 82 ng·h/mL; Cmax ([4]; Sprague Dawley, rat, po, BBR, 100 mg/kg orally, plasma): 147 ± 21.8 ng/mL; beta actin relative Bcl-2 expression reduced compared to untreated control [5]: 2.79 fold; HIF-1α expression [6]: significantly down regulated; cyclin D1 relative expression reduced compared to untreated control [7]: 1.02 fold; relative expression of p53 increased compared to untreated control [8]: 2.51 fold; survivin expression down regulated compared to control [9]: 2.03 fold; Cmax [10]: 4 ng/mL; bioavailability [11]: less than 1%

Source: paper PMC3948684, “Approaches to Improve the Oral Bioavailability and Effects of Novel Anticancer Drugs Berberine and Betulinic Acid” (PLoS ONE, 2014)
